Experimental data from patent EP3233044B1, “ANHYDROUS COSMETIC COMPOSITION FOR TOPICAL APPLICATION IN INTIMATE AREAS” (The Procter & Gamble Company, priority 2014, dated 2016).

Columns and labels:
[1] = Thiol Vapor Pressure Suppression (TVPS) index, headspace butanethiol by zNose fast GC; format: physicochemical; details: 5 µl compound vs 100 µl of 1% v/v butanethiol in ethanol, 37 °C for 4 hours; percentage reduction in butanethiol peak area
Excerpt: Thiol Vapor Pressure Suppression (TVPS) index is a measure of the reduction in butanethiol concentration in the headspace by a compound, as measured using a fast GC instrument, the zNose 7100 (Electronic Sensor Technologies, Newbury Park, CA). Before any measurements the instrument is calibrated according to manufacturer's instructions under the same experimental settings. The instrument has a DB-5 column (EST Part No.SYS7100C5, Electronic Sensor Technologies, Newbury Park, CA) 1 m in length, 0.25 µm phase thickness, and 0.25mm in diameter. […]
TVPS of a compound is measured in the following way: 100 µl ± 1 µl of a 1% v/v butanethiol (99%, purity) solution in ethanol (200 proof) is added into a 1 ml vial (8 x 40 mm). […]
The amount of butanethiol in the headspace is measured from the area of the peak on the chromatograph for butanethiol (ABtSH,Rx). To calculate the percentage of butanethiol reduction in the headspace, a control with the butanethiol solution without the volatile material is run in the same manner and the area is measured as well (ABtSH,C). TVPS is then measured as the percentage reduction in butanethiol area calculated using the following formula: TVPS = (ABtSH,C −ABtSH,Rx)/(ABtSH,C) × 100 [formula]

[2] = Solubility of Vitamin B5 derivatives in anhydrous stick formulations; format: physicochemical
Excerpt: Additional considerations regarding exemplary Vitamin B5 derivatives may apply. For example, in order to deliver Vitamin B5 (or a derivative thereof) from an anhydrous, hydrophobic, glycol free and antiperspirant free cosmetic stick, a corresponding matrix soluble form or derivative of Vitamin B5 must be used to achieve the desired benefits of hair softening, shave bump reduction and wound healing from shave cut damage. For example, if an incompatible or insoluble form of Vitamin B5 is used, such as panthenol, this will not form a homogenous one phase solution when the ingredients are blended and heated together from the melt.
As such, the Vitamin B5 derivative utilized should be soluble in the anhydrous, hydrophobic, glycol free and antiperspirant free matrix.

Row | Molecule | TVPS [1] | Solublility in hydrophobic Anhydrous, glycol free, antiperspirant free Stick formulations [2]
1 | CC(C)c1cccc(C(C)CC=O)c1 (stereo not drawn) [Florhydral] | 50.5 | 
2 | CC(=O)OCCCNC(=O)[C@H](OC(C)=O)C(C)(C)COC(C)=O [Panthenyl Triacetate] |  | Soluble
3 | Panthenyl Ethyl Ether |  | Soluble
